Assay results taken from patent US12053529B2, “Amino-reactive positively charged ATRP initiators that maintain their positive charge during synthesis of biomacro-initiators” (Carnegie Mellon University, priority 2018, dated 2024).

Experiments:
[1] = test system: avidin, neutral initiator (N)-pCBMA; test: biotin binding rate, avidin (N)-pCBMA
Excerpt: (§1) Avidin: Avidin (Avi) is a tetrameric protein (homo-4-mer) that is approximately 66 kDa in its tetrameric form and is found in the egg whites of birds, reptiles, and amphibians. Its highly specific activity arises from binding strongly to biotin and this binding event is one of the strongest noncovalent interactions known, making avidin extremely useful for biochemical assays/probes and protein purification chemistries. Each sub-unit of avidin can bind to one biotin molecule. In agreement with CT and Lyz, the number of initiator modifications when using the positive initiator was less than that achieved with neutral initiator (4.3 versus 7.9). The activities of avidin samples were measured next using two different techniques (TABLE 6). Biotin binding rates were determined kinetically and total equilibrium biotin binding were determined spectophotometrically using 4′-hydroxyazobenzene-2-carboxylic acid (HABA) dye. Since the avidin-biotin binding is so strong, the displacement of HABA by biotin in the active site can be measured and the amount of bound biotin can be determined by the decrease in absorbance at 500 nm. The biotin binding rate of Avi-neutral initiator was decreased to 0.48 s^−1 from 105.2 s^−1 for native avidin.

avidin, native = test: biotin binding rate, native avidin
Excerpt: as §1

[2] = test system: avidin, positive initiator (+)-pCBMA; test: biotin binding rate, avidin (+)-pCBMA
Excerpt: as §1

[3] = test system: avidin, positive initiator (+); test: biotin binding rate, avidin-positive initiator
Excerpt: as §1

[4] = test system: Uricase from Candida sp., positive initiator (+)-pCBMA; test: Michaelis-Menten kinetics, uric acid oxidation, uricase (+)-pCBMA; format: biochemical; conditions: pH 8.5, 37° C.
Method: (§2) CT and Lysozyme were used as received. AChE and Uricase were dialyzed in 25 mM sodium phosphate (pH 7.0) using a 25 kDa molecular weight cutoff dialysis tube in a refrigerator for 24 hours and then lyophilized. Copper (II) chloride, sodium ascorbate, 1,1,4,7,10,10-hexamethyltriethylenetetramine (HMTETA), 2-bromo-2-methylpropionyl bromide, 3-(dimethylamino)-1-propylamine, N,N′-diisopropylcarbodimine, fluorescamine, acetylthiocholine iodide, 5,5′-dithiobis(2-nitrobenzoic acid) (DTNB) were purchased from Sigma Aldrich. 4-bromobutyric acid and N-hydroxysuccinimide were purchased from TCI USA (Portland, OR). Micro BCA assay kit was purchased from Thermo Fisher Scientific.
(§3) Uricase: 200 μL of NHS-functionalized ATRP initiator solution in DMSO (100 μmol, 34 mg for neutral and 52 mg for positive initiator, respectively) was added to Uricase solution (20 mg of […] Uricase in 20 mL of 100 mM phosphate (pH 7.0)) and stirred at room temperature for 2 hours. […] The concentration of Uricase initiator conjugates was determined using a Micro BCA Assay Kit (ThermoFisher Scientific).
(§4) CT-pCBMA and pSMA conjugate synthesis: A solution of monomer (230 mg for CBMA and 246 mg for SMA, 1.0 mmol respectively) and CT-initiator (23 mg for neutral and 25 mg for positive initiator, 10 μmol of initiator) in 100 mM sodium phosphate (20 mL, pH 7) was sealed and bubbled with nitrogen gas in an ice bath for 30 minutes. […] Conjugate CT content was determined by BCA assay as described elsewhere (Lee et al. 2005, supra). […]
(§5) Uricase: Uric acid (0-400 μL of 300 μM in 50 mM sodium tetraborate (pH 8.5)) was mixed with 50 mM sodium phosphate (990-580 μL, pH 8.5). […] The initial rate was monitored by recording the decreasing in absorbance as 290 nm using an UV-VIS absorbance spectrometer with a temperature controlled cell folder at 37° C. Michaelis-Menten parameters were determined by nonlinear curve fitting of initial rate versus substrate concentration plots using Prism 7 software (GraphPad).

[5] = test system: Uricase from Candida sp., positive initiator (+); test: Michaelis-Menten kinetics, uric acid oxidation, uricase-positive initiator; format: biochemical; conditions: pH 8.5, 37° C.
Method: as §2
(§6) Uricase: 200 μL of NHS-functionalized ATRP initiator solution in DMSO (100 μmol, 34 mg for neutral and 52 mg for positive initiator, respectively) was added to Uricase solution (20 mg of […] Uricase in 20 mL of 100 mM phosphate (pH 7.0)) and stirred at room temperature for 2 hours. Uricase-initiator conjugates were dialyzed in 25 mM sodium phosphate (pH 7.0) using a 25 kDa molecular cutoff dialysis tube in a refrigerator for 24 hours and then lyophilized. The concentration of Uricase initiator conjugates was determined using a Micro BCA Assay Kit (ThermoFisher Scientific).
(§7) Uricase: Uric acid (0-400 μL of 300 μM in 50 mM sodium tetraborate (pH 8.5)) was mixed with 50 mM sodium phosphate ([…], pH 8.5). Native, initiator and polymer conjugate solution (10 μL, 20 μM of Uricase) was added to the substrate solution. The initial rate was monitored by recording the decreasing in absorbance as 290 nm using an UV-VIS absorbance spectrometer with a temperature controlled cell folder at 37° C. Michaelis-Menten parameters were determined by nonlinear curve fitting of initial rate versus substrate concentration plots using Prism 7 software (GraphPad).

[6] = test system: Uricase from Candida sp., neutral initiator (N)-pSMA; test: Michaelis-Menten kinetics, uric acid oxidation, uricase (N)-pSMA; format: biochemical; conditions: pH 8.5, 37° C.
Method: as §2, §3, §4, §5

[7] = test system: Uricase from Candida sp., neutral initiator (N); test: Michaelis-Menten kinetics, uric acid oxidation, uricase-neutral initiator; format: biochemical; conditions: pH 8.5, 37° C.
Method: as §2, §6, §7

[8] = test system: Uricase from Candida sp., neutral initiator (N)-pCBMA; test: Michaelis-Menten kinetics, uric acid oxidation, uricase (N)-pCBMA; format: biochemical; conditions: pH 8.5, 37° C.
Method: as §2, §3, §4, §5

[9] = test system: Uricase from Candida sp., native; test: Michaelis-Menten kinetics, uric acid oxidation, native uricase; format: biochemical; conditions: pH 8.5, 37° C.
Method: as §2, §7

[10] = test system: Uricase from Candida sp., positive initiator (+)-pSMA; test: Michaelis-Menten kinetics, uric acid oxidation, uricase (+)-pSMA; format: biochemical; conditions: pH 8.5, 37° C.
Method: as §2, §3, §4, §5

[11] = test system: T1, C[C@H](NC(=O)CCC(=O)O)C(=O)N[C@@H](C)C(=O)N1CCC[C@H]1C(=O)N[C@@H](Cc1ccccc1)C(=O)Nc1ccc([N+](=O)[O-])cc1; test: Michaelis-Menten kinetics, Suc-AAPF-pNA hydrolysis, native CT; format: biochemical, bovine; conditions: other: pH 8, 37° C.
T1 construct: mature A, B and C chains of chymotrypsinogen A; unmodified
Method: as §2
CT: N-succinyl-Ala-Ala-Pro-Phe-p-nitroanilide (Suc-AAPF-pNA; SEQ ID NO:1) was used as a substrate for CT. Substrate (0-20 mg/mL in DMSO, 30 μL) was added to a 1.5 mL cuvette with sodium phosphate buffer (pH 8, 100 mM). Native CT, CT-initiators, and CT-polymers (0.1 mg/mL protein, 4 μM, 10 μL) was added to the cuvette with substrate and buffer. The initial substrate hydrolysis rate was measured in triplicate by recording the increase in absorbance at 412 nm over the first 60 seconds after mixing using a Lambda 2 Perkin Elmer ultraviolet-visible spectrometer equipped with a temperature-controlled cell holder at 37° C. Michaelis-Menten parameters were determined using nonlinear curve fitting of initial hydrolysis rate versus substrate concentration in GraphPad.
Michaelis-Menten kinetics were measured at pH 8 and 37° C. using Succinyl-Ala-Ala-Pro-Phe-p-nitroanilide (Suc-AAPF-pNA; SEQ ID NO:1), a hydrophobic and negatively charged substrate for CT that binds to the hydrophobic S1 binding pocket and is then cleaved by the catalytic triad (Ser 195, His 57, Asp 102). […] The observed decrease in KM upon neutral initiator attachment could have been the result of the hydrophobicity of the initiator. The partition coefficient (log D) of a lysine side chain at pH 8.0 is −1.00. After covalent attachment of the neutral initiator, the log D value of the new product rose to 1.82. […]

Compound: O=C(O)CCCC[C@@H]1SC[C@@H]2NC(=O)N[C@@H]21 [biotin]
- biotin binding rate [1]: 0.23 ± 0.07 s⁻¹
- biotin binding rate (avidin, native): 92.5 ± 14.1 s⁻¹
- biotin binding rate [2]: 1.64 ± 0.08 s⁻¹
- increase in biotin binding rate compared to Avi-neutral initiator ([3]; Avi-positive initiator vs Avi-neutral initiator): 1.7 fold
- biotin binding rate ([3]; avidin (+)): 1.69 ± 0.04 s⁻¹

Compound: O=c1[nH]c(=O)c2[nH]c(=O)[nH]c2[nH]1 [uric acid]
- Km [4]: 22 ± 7.6 µM
- kcat [4]: 0.03 ± 0.003 s⁻¹
- kcat/KM [4]: 1000 ± 500 M⁻¹ s⁻¹
- Km [5]: 25.4 ± 1.4 µM
- kcat [5]: 2.14 ± 0.04 s⁻¹
- kcat/KM [5]: 84000 ± 5000 M⁻¹ s⁻¹
- KM [6]: undetectable
- kcat [6]: undetectable
- kcat/KM [6]: undetectable
- Km [7]: 119 ± 9.7 µM
- kcat [7]: 0.18 ± 0.01 s⁻¹
- kcat/KM [7]: 2000 ± 600 M⁻¹ s⁻¹
- KM [8]: undetectable
- kcat [8]: undetectable
- kcat/KM [8]: undetectable
- Km [9]: 12.9 ± 0.6 µM
- kcat [9]: 3.42 ± 0.05 s⁻¹
- kcat/KM [9]: 266000 ± 13000 M⁻¹ s⁻¹
- KM [10]: undetectable
- kcat [10]: undetectable
- kcat/KM [10]: undetectable

Compound: α-chymotrypsin (CT) from bovine pancreas (type II), native (Bos taurus)
- Km [11]: 107 ± 5 µM
- kcat [11]: 26.6 ± 0.3 s⁻¹
- kcat/Km [11]: 250000 ± 10000 M⁻¹ s⁻¹
